The assay deals with Integrin alpha-IIb/beta-3 (Homo sapiens, UniProt P08514+P05106). The assay is described as follows: ChEBML_215984.

pIC50: −log10 of the molar value.

Integrin alpha-IIb/beta-3, sequence (P05106 27-788 limits assumed): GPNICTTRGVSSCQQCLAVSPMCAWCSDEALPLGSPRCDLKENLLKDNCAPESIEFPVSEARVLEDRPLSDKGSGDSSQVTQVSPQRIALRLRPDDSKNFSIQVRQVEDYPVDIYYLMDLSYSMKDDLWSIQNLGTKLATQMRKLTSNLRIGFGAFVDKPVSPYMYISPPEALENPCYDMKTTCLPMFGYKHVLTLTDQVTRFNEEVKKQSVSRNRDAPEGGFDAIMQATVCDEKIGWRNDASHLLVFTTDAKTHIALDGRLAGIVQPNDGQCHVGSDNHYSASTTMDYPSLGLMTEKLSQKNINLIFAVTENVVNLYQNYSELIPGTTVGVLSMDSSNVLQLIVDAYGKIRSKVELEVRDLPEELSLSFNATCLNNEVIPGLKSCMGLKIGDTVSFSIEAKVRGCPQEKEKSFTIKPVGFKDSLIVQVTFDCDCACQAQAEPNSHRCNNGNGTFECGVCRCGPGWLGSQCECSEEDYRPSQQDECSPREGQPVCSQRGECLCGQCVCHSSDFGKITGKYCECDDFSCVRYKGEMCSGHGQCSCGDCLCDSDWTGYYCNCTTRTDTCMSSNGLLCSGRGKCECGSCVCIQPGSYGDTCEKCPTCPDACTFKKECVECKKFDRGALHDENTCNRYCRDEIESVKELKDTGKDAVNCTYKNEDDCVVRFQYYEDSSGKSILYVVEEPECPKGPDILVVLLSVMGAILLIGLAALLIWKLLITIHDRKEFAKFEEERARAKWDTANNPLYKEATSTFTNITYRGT
Integrin alpha-IIb/beta-3, sequence (P08514 32-887 limits assumed): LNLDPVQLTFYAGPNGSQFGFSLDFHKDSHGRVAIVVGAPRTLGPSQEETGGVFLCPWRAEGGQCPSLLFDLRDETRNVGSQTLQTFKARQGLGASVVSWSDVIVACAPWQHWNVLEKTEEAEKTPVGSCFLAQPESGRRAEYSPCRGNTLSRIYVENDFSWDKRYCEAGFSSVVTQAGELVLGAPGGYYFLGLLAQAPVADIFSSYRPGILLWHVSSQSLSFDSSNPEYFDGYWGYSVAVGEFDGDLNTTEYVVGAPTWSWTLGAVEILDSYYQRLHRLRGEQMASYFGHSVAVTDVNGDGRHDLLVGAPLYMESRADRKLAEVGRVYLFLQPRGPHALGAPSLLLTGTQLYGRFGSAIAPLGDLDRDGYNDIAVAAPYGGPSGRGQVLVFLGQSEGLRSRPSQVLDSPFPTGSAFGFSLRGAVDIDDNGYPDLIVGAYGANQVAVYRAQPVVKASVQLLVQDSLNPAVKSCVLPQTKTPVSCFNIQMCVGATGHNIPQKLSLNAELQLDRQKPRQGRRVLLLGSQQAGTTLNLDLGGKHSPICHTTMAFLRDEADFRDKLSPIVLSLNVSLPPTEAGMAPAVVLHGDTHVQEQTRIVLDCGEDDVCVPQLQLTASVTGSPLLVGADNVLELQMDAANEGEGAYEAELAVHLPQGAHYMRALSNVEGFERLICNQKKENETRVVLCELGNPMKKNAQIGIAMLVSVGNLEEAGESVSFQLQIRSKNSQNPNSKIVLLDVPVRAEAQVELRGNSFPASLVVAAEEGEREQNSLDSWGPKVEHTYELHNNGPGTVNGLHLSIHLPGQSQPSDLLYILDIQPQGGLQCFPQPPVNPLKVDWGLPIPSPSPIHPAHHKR
Integrin alpha-IIb/beta-3, sequence (P08514 891-1039 limits assumed): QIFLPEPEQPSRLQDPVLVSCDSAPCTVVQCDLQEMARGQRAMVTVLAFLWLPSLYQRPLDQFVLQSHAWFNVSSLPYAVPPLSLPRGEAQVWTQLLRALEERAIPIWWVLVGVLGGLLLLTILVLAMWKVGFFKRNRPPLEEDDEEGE

For `CC(C)C1CN(C)C(CCCN=C(N)NC(=O)c2ccc(N=[N][Tc]345(=[P@SP2](c6ccc([S@TB1](=O)(=O)O)cc6)(c6ccccc6S(=O)(=O)O)c6ccccc6[S@TB1](=O)(=O)O)[O]CC[N]3C(CO)(C[O]4)C[O]5)nc2)C(=O)NCC(=O)NC(CC(=O)O)C(=O)NCc2cc(NC(=O)CCCCCN)cc(c2)C(=O)N1` (stereo unspecified) [RP-444], the pIC50 was 7.89.

A word on the pIC50: it is the IC50 on a negative log10 scale, so that one unit is a factor of ten. A lower pIC50 goes with a large IC50.

The record behind these values is BindingDB's records for doi:10.1016/S0960-894X(97)00083-8 (1997).
